Columns and labels:
GluK1 = target: T1, GluK1 (Rattus norvegicus, UniProt P22756); assay: Radioligand binding at recombinant homomeric GluK1 in Sf9 membranes; conditions: recombinant rat homomeric receptor, [3H]-(S)-NF608, mean ± SEM
T1 construct: made in house; host or cells: Sf9 insect cells (membranes)
Method: (§1) Ligand binding affinities at recombinant rat homomeric GluA2, GluK1−3, and GluK5 were determined as previously detailed. […] The filters were dried at 70 °C for 1 h, and 50 μL/well Microscint 20 (PerkinElmer, Waltham, MA, USA) was added. Radioactivity was detected with a TopCounter (PerkinElmer, Waltham, MA, USA). GluA2 and GluK5 assays were filtered on GF/C type filters using Millipore 12-well filtration manifolds (Merck Life Science, Søborg, Denmark) and washed twice with ice-cold assay buffer. Filters were placed in pony vials (PerkinElmer, Waltham, MA, USA), 3 mL of Ultima Gold scintillation fluid (PerkinElmer, Waltham, MA, USA) was added, and DPM (disintegrations per minute) were determined using a TriCarb 2900 scintillation counter (PerkinElmer, Waltham, MA, USA).
(§2) All competition curves (n ≥ 3 per ligand) were determined in triplicate. Data were analyzed using GraphPad Prism 6 (GraphPad Software, San Diego, CA, USA) to determine ligand affinity (Ki) and Hill coefficient (nH) using the one-site Ki and four-parameter logistics equations, respectively.

GluK2 = target: T2, GluK2 (Rattus norvegicus, UniProt P42260); assay: Radioligand binding at recombinant homomeric GluK2 in Sf9 membranes; conditions: recombinant rat homomeric receptor, [3H]-kainic acid, mean ± SEM
T2 construct: made in house; host or cells: Sf9 insect cells (membranes)
Method: as §1, §2

GluK3 [1] = target: T3, GluK3 (Rattus norvegicus, UniProt P42264); assay: Radioligand binding at recombinant homomeric GluK3 in Sf9 membranes; conditions: recombinant rat homomeric receptor, [3H]-kainic acid, mean ± SEM
T3 construct: made in house; host or cells: Sf9 insect cells (membranes)
Method: as §1, §2

GluK5 = target: T4, GluK5 (Rattus norvegicus, UniProt Q63273); assay: Radioligand binding at recombinant homomeric GluK5 in Sf9 membranes; conditions: recombinant rat homomeric receptor, [3H]-kainic acid, mean ± SEM
T4 construct: made in house; host or cells: Sf9 insect cells (membranes)
T4 sequence (Q63273 15-979): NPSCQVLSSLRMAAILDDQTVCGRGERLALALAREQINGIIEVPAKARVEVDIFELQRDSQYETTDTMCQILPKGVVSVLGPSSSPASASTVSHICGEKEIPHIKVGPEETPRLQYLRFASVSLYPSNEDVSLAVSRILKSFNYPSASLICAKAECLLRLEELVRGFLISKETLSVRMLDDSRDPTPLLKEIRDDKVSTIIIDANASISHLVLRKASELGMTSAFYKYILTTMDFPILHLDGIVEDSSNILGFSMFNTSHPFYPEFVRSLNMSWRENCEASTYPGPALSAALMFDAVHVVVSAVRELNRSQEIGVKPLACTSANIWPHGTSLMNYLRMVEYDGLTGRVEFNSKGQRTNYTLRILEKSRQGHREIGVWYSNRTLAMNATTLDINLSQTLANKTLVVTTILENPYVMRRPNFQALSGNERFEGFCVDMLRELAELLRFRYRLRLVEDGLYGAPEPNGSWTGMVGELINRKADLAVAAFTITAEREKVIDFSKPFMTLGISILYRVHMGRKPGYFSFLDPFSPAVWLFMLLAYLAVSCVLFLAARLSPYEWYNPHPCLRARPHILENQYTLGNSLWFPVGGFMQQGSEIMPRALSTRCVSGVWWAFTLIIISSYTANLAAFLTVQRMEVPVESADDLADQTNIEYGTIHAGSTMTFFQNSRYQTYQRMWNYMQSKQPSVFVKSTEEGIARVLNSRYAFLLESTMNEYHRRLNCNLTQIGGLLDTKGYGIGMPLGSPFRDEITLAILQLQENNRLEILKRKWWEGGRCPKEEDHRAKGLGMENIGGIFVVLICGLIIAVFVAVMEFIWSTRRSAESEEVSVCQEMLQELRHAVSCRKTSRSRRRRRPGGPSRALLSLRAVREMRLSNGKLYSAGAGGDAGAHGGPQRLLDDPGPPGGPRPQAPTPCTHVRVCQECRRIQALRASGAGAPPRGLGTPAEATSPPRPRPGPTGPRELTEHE
Method: as §1, §2

GluA2 = target: T5, GluA2 (Rattus norvegicus, UniProt P19491); assay: Radioligand binding at recombinant homomeric GluA2 in Sf9 membranes; conditions: recombinant rat homomeric receptor, [3H]-(RS)-AMPA, mean ± SEM
T5 construct: made in house; host or cells: Sf9 insect cells (membranes)
Method: as §1, §2

GluK3 [2] = target: T3, GluK3; conditions: at least; cited from earlier work
GluK3a = target: T6, GluK3a (Rattus norvegicus, UniProt P42264); assay: Intracellular Ca2+ imaging assay, HEK293 cells expressing GluK3a; type: cell-based; conditions: 100 µM KA + 300 µM BPAM344, Ca2+ fluorescence, read-out: IC50, antagonism of agonist-evoked responses at GluK3
T6 construct: expressed in transfected cells
Description: For the determination of antagonistic activity of compounds at GluK1, GluK3 and GluA2 receptors, stable HEK293 cell lines expressing rat GluK1b(Q), GluK3a, and GluA2(Q)i were created. A polyclonal stable cell line expressing GluK3a was created as described previously. For the creation of polyclonal stable cell lines expressing GluK1and GluA2 receptors, cDNA encoding blasticidin-S deaminase (blas) enzymes were inserted into the pIRES plasmid vector (Clontech, Mountain View, CA, USA) to create the plasmid vector pRES(blas). Subsequently, cDNA for rat GluK1(Q)1b and the flip isoform of rat GluA2(Q)i were inserted into pRES(blas) to create the expression constructs GluK1b(Q)pIRES(blas) and GluA2i(Q)pIRES(blas), respectively. These were used to transfect GripTite^TM HEK293 cells followed by selecting with 20 µg/mL blasticidin (Invivogen, Toulouse, France) and 0.50 mg/mL geneticin in the presence of 20 µM of the AMPA receptor antagonist CNQX (Tocris, Bristol, UK) until stably transfected GluK1b(Q) and GluA2(Q)i cell lines were obtained. For functional assays, cells were plated into clear-bottomed, black 96-well fluorescence culture plates (Corning, Vordingborg, Denmark), and when >70% confluent, the cells were loaded with 2 μM Fluo 4-AM calcium sensitive dye (Abcam, Cambridge, UK) and used for the imaging of agonist-evoked changes in intracellular Ca^2+ using a FlexStation I plate reader (Molecular Devices, San Jose, CA, USA). […] Changes in dye fluorescence in response to the addition of an agonist solution were then measured at 538 nm using excitation at 485 nm and emission cut-off at 515 nm. Baseline fluorescence was measured for 16 s before the addition of 50 µL agonist solution to each well of the assay plate, and fluorescence was measured for 120 to 160 s after addition of the agonists. Peak change in fluorescence was calculated as the difference between the maximal observed increase in fluorescence and pre-agonist baseline fluorescence. The agonist solutions contained 100 µM KA together with 300 µM of the KAR positive allosteric modulator BPAM344 (Sigma-Aldrich Chemical, St. Louis, MO, USA) for GluK1 and GluK3 experiments or 100 µM glutamate together with 100 µM of the AMPAR positive allosteric modulator cyclothiazide for GluA2 experiments (HelloBio, Bristol, UK). Responses were determined in at least triplicate at each compound concentration.

T5 sequence (P19491 22-883): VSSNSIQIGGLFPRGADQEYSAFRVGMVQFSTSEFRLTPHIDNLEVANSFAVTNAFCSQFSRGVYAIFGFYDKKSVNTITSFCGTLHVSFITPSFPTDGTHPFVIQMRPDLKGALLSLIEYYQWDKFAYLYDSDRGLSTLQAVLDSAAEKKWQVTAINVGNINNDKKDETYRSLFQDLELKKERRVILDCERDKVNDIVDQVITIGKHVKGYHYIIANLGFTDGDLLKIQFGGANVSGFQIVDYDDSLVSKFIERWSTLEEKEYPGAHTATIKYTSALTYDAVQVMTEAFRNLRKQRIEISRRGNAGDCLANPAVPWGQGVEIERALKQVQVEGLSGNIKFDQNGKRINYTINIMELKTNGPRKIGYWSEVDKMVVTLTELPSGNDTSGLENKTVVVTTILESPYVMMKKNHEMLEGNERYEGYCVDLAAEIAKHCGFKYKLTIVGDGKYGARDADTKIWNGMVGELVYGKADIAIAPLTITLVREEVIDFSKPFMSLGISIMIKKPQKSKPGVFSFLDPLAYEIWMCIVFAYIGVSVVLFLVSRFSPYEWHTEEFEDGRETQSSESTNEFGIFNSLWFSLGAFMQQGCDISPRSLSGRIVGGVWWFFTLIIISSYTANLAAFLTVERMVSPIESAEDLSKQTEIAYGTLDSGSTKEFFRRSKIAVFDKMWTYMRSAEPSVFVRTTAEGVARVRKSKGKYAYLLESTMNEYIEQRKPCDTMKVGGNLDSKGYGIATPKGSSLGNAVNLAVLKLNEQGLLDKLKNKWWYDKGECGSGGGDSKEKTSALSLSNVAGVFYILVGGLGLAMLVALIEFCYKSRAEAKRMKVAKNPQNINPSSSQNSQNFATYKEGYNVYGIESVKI
T1 sequence (P22756 31-949): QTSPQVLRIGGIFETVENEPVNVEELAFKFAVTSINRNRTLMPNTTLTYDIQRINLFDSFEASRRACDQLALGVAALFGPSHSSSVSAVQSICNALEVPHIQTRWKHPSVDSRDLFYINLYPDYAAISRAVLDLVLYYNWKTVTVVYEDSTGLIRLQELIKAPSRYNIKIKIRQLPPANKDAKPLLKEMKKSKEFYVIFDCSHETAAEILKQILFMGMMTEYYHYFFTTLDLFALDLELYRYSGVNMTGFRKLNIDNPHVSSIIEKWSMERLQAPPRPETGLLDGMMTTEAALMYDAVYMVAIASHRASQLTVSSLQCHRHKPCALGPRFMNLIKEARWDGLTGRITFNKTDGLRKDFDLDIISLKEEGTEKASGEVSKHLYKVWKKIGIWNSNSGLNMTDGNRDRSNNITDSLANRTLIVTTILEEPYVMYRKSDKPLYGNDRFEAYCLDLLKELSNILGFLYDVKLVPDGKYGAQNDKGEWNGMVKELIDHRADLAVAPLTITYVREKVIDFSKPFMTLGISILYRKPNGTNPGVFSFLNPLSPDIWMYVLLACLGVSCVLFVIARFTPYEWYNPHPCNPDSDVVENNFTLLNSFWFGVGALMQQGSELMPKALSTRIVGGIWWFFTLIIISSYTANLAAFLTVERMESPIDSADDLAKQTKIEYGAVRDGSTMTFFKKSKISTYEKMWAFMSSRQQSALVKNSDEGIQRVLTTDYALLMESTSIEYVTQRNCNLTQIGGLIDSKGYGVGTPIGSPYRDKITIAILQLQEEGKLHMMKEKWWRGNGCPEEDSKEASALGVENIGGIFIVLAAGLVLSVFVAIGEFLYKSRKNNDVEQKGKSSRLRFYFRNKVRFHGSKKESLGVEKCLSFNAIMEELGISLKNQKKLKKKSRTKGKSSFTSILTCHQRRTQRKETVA
T3 sequence (P42264 32-919): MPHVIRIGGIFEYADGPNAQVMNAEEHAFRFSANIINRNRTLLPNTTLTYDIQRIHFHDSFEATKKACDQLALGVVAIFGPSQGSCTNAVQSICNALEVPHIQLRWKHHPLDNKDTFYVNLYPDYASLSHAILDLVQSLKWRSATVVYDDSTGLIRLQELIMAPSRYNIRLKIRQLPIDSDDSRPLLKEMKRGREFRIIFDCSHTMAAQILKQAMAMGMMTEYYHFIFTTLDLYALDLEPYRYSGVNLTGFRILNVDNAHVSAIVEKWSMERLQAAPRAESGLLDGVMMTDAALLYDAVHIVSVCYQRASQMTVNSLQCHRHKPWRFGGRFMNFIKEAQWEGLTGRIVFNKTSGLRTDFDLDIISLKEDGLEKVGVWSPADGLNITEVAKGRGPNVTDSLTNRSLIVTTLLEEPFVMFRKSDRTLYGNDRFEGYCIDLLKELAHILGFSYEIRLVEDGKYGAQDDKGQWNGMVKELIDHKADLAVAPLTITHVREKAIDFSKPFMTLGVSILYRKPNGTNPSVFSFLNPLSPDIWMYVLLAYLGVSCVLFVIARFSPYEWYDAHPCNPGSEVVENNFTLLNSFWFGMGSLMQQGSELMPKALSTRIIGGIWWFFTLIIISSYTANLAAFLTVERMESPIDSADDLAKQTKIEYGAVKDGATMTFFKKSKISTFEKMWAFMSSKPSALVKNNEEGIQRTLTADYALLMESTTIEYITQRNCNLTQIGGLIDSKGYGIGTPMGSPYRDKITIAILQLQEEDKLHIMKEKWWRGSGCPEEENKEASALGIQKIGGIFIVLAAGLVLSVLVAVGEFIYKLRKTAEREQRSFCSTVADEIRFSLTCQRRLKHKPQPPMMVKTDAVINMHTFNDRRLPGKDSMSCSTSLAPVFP
T2 sequence (P42260 32-908): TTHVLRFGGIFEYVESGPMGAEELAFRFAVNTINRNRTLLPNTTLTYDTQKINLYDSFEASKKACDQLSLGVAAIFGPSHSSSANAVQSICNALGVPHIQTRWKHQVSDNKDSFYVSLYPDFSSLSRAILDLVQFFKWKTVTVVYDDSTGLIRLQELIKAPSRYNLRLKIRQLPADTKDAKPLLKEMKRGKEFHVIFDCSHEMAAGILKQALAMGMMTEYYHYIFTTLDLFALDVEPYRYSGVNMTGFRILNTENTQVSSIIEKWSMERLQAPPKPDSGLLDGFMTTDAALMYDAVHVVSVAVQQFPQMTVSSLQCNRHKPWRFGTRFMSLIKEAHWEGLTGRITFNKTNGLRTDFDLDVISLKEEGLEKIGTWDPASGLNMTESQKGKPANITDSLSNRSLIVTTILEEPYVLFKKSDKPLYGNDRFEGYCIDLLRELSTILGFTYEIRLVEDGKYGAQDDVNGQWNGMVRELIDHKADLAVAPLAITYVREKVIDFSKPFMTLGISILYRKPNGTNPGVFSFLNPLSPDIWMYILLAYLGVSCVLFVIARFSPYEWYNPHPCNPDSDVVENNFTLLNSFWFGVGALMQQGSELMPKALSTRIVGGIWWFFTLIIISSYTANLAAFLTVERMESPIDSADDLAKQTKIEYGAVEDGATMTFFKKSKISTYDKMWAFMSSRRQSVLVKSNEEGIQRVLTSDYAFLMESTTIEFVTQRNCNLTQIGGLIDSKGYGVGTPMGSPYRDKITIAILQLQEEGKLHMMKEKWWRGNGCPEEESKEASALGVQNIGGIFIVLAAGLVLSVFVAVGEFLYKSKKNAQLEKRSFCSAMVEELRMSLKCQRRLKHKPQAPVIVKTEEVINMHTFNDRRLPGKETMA
T6 sequence (P42264 32-919): as the sequence (P42264 32-919) above

Compound	Ki (GluK1) [µM]	Ki (GluK2) [µM]	Ki (GluK3 [1]) [µM]	Ki (GluK5) [µM]	Ki (GluA2) [µM]	melting point [°C]	IC50 (GluK3a) [µM]	binding preference at GluK3 over the GluK1, GluK2 and GluK5 subtypes (GluK3 [2])
NS(=O)(=O)c1cccc2c1c([N+](=O)[O-])cc1nc(O)c(O)nc12 [NBQX, reference compound]	–	5.4 ± 1.2	–	152 ± 23	–	–	–	–
COc1ccc(C#Cc2ccc3c(c2)[nH]c(=O)c(=O)n3NC(=O)c2ccccc2)cc1 [Compound 12]	> 100	> 100	8.3 ± 0.4	> 100	> 100	304 to 305	–	–
N[C@@H](Cc1c[nH]c(S)n1)C(=O)O [(S)-2-mercaptohistidine]	–	–	–	–	–	–	–	15–100 fold
O=C(Nn1c(=O)c(=O)[nH]c2cc(C#Cc3ccc(Cl)cc3)ccc21)c1ccccc1 [Compound 10]	> 100	> 100	3.5 ± 0.7	> 100	> 100	326 to 327	–	–
Nc1ccc(C#Cc2ccc3c(c2)[nH]c(=O)c(=O)n3NC(=O)c2ccccc2)cc1 [Compound 23]	> 100	> 100	1.4 ± 0.2	> 100	> 100	312 to 314	–	–
Nc1cccc(C#Cc2ccc3c(c2)[nH]c(=O)c(=O)n3NC(=O)c2ccccc2)c1 [Compound 22]	> 100	–	~100	–	–	274 to 275	–	–
O=C(Nn1c(=O)c(=O)[nH]c2cc(-c3cc4ccccc4o3)ccc21)c1ccccc1 [Compound 18]	> 100	–	14 ± 2	–	–	–	–	–
CCc1ccc(C#Cc2ccc3c(c2)[nH]c(=O)c(=O)n3NC(=O)c2ccccc2)cc1 [Compound 7]	> 100	> 100	20 ± 1	> 100	> 100	308 to 310	–	–
O=C(Nn1c(=O)c(=O)[nH]c2cc(C#Cc3ccncc3)ccc21)c1ccccc1 [Compound 25]	> 100	> 100	25 ± 6	> 100	> 100	239 to 241	–	–
O=C(Nn1c(=O)c(=O)[nH]c2cc(C#Cc3ccc(Oc4ccccc4)cc3)ccc21)c1ccccc1 [Compound 13]	≥ 100	–	7.9 ± 0.7	–	–	262 to 263	–	–
Cc1ccc(C#Cc2ccc3c(c2)[nH]c(=O)c(=O)n3NC(=O)c2ccccc2)cc1 [Compound 6]	≥ 100	–	6.1 ± 0.8	–	–	325 to 327	–	–
O=C(O)c1cccc(C#Cc2ccc3c(c2)[nH]c(=O)c(=O)n3NC(=O)c2ccccc2)c1 [Compound 14]	> 100	> 100	28 ± 2	> 100	> 100	310 to 312	–	–
O=C(O)c1ccc(C#Cc2ccc3c(c2)[nH]c(=O)c(=O)n3NC(=O)c2ccccc2)cc1 [Compound 15]	> 100	> 100	31 ± 4	> 100	> 100	348 to 349	–	–
CC(C)c1ccc(C#Cc2ccc3c(c2)[nH]c(=O)c(=O)n3NC(=O)c2ccccc2)cc1 [Compound 9]	> 100	> 100	38 ± 10	> 100	> 100	263 to 264	–	–
O=C(Nn1c(=O)c(=O)[nH]c2cc(C#Cc3cccc(O)c3)ccc21)c1ccccc1 [Compound 19]	> 100	> 100	3.2 ± 0.6	> 100	~100	313 to 314	–	–

The next lines start with results.

Ki (GluK1) [µM]	Ki (GluK2) [µM]	Ki (GluK3 [1]) [µM]	Ki (GluK5) [µM]	Ki (GluA2) [µM]	melting point [°C]	IC50 (GluK3a) [µM]	Compound	binding preference at GluK3 over the GluK1, GluK2 and GluK5 subtypes (GluK3 [2])
> 100	> 100	~100	> 100	> 100	303 to 305	–	NS(=O)(=O)c1ccc(C#Cc2ccc3c(c2)[nH]c(=O)c(=O)n3NC(=O)c2ccccc2)cc1 [Compound 16]	–
> 100	> 100	50 ± 12	> 100	> 100	305 to 306	–	CCCc1ccc(C#Cc2ccc3c(c2)[nH]c(=O)c(=O)n3NC(=O)c2ccccc2)cc1 [Compound 8]	–
39 ± 4	–	24 ± 4	–	–	273 to 275	–	CN(C)c1ccc(C#Cc2ccc3c(c2)[nH]c(=O)c(=O)n3NC(=O)c2ccccc2)cc1 [Compound 24]	–
~100	> 100	> 100	> 100	> 100	–	–	O=C(Nn1c(=O)c(=O)[nH]c2cc(C#Cc3ccc(C(F)(F)F)cc3)ccc21)c1ccccc1 [Compound 11]	–
0.15 ± 0.05	0.091 ± 0.015	0.13 ± 0.03	3.8 ± 0.1	0.23 ± 0.02	–	2.2	O=C(Nn1c(=O)c(=O)[nH]c2cc(C#Cc3ccc4[nH]ncc4n3)ccc21)c1ccccc1 [Compound 29]	–
11 ± 2	12 ± 2	0.28 ± 0.02	> 100	> 100	318 to 320	0.6	O=C(Nn1c(=O)c(=O)[nH]c2cc(C#Cc3cncnc3)ccc21)c1ccccc1 [Compound 27]	–
~100	> 100	5.8 ± 1.5	> 100	> 100	298 to 300	–	O=C(Nn1c(=O)c(=O)[nH]c2cc(C#Cc3ccc(CO)cc3)ccc21)c1ccccc1 [Compound 20]	–
14 ± 2	–	1 ± 0.1	–	–	303 to 305	–	Nc1ccccc1C#Cc1ccc2c(c1)[nH]c(=O)c(=O)n2NC(=O)c1ccccc1 [Compound 21]	–
~100	~100	1.4 ± 0.4	> 100	> 100	318 to 320	–	Cc1cccc(C#Cc2ccc3c(c2)[nH]c(=O)c(=O)n3NC(=O)c2ccccc2)c1 [Compound 5]	–

Reference: publication PMC9369419 (International Journal of Molecular Sciences, 2022)
